In the supplement of paper PMC10307832:

Compound: CCc1cnn2c(NCc3ccc[n+]([O-])c3)cc(N3CCCC[C@H]3CCO)nc12 [Dinaciclib] + CC(=O)c1c(C)c2cnc(Nc3ccc(N4CCNCC4)cn3)nc2n(C2CCCC2)c1=O [Palbociclib] (partner 0.5 µM)
Assay: relative viability (nuclei count vs DMSO), 5 days (fraction); higher = more cells survive
Method in brief: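 Relative viability divides the nuclei count in treated wells by that in vehicle wells. Lung cancer cell lines were seeded in 1536-well plates, dosed by pin tool the next day, and fixed and stained after 5 days in one step with final 0.05% Triton X-100, 1% formaldehyde and 1 ug/ml Hoechst. Dosing was a single drug or a fixed anchor-drug dose plus five library-drug doses (not always all listed) in √10 steps, and values are medians of duplicate plates imaged at 4×.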

Cell Line	relative viability (first compound 0.009487 µM)	relative viability (first compound 0.03 µM)	relative viability (first compound 0.09487 µM)	relative viability (first compound 0.3 µM)
EMC-BAC-2	0.46	0.323	0.224	0.248
NCI-H661	0.431	0.188	0.14	0.153
LU99A	0.383	0.124	0.138	0.106
LK-2	0.543	0.109	0.107	0.0837
SW 900	0.57	0.318	0.13	0.158
NCI-H3122	0.175	0.108	0.0876	0.0895
NCI-H2347	0.506	0.321	0.21	0.212
HCC-827	0.387	0.169	0.14	0.121
NCI-H1666	0.672	0.442	0.6	0.541
NCI-H358	0.142	0.095	0.0882	0.096
201T	0.354	0.285	0.231	0.228
PC-3 [JPC-3]	0.535	0.489	0.365	0.29
NCI-H2405	0.542	0.22	0.199	0.188
LXF-289	0.598	0.213	0.0821	0.108
EKVX	0.323	0.234	0.114	0.113
A-427	0.437	0.142	0.126	0.127
ChaGo-K-1	0.971	0.239	0.118	0.114
SK-MES-1	0.327	0.179	0.18	0.154
LCLC-97TM1	0.18	0.0731	0.0753	0.0729
NCI-H2170	0.387	0.122	0.103	0.117
NCI-H1993	0.602	0.36	0.506	0.433
NCI-H460	0.0704	0.0127	0.0174	0.0151
NCI-H1975	0.578	0.188	0.102	0.105
RERF-LC-KJ	0.907	0.216	0.139	0.157

Cell Line	relative viability (first compound 0.009487 µM)	relative viability (first compound 0.03 µM)	relative viability (first compound 0.09487 µM)	relative viability (first compound 0.3 µM)
NCI-H322M	0.441	0.392	0.373	0.384
NCI-H1651	0.519	0.383	0.148	0.0571
HARA	0.204	0.126	0.0948	0.0798
H3255	0.315	0.257	0.232	0.225
NCI-H441	0.197	0.148	0.125	0.113
CAL-12T	0.121	0.137	0.108	0.128
ABC-1	0.648	0.334	0.212	0.246
NCI-H1792	0.677	0.365	0.217	0.152
NCI-H1437	0.245	0.203	0.117	0.119
HOP-62	0.465	0.187	0.071	0.0775
EPLC-272H	0.275	0.0744	0.0435	0.0386
COR-L 105	0.414	0.311	0.296	0.309
HCC-366	0.272	0.0382	0.0205	0.0359
HCC-44	0.9	0.798	0.367	0.342
NCI-H2009	0.243	0.0729	0.0659	0.057
NCI-H23	0.304	0.167	0.0992	0.103
NCI-H727	0.633	0.38	0.361	0.383
NCI-H1355	0.425	0.311	0.154	0.137
NCI-H1944	0.39	0.13	0.147	0.123
NCI-H2023	0.301	0.0599	0.0471	0.063
NCI-H1650	0.343	0.0912	0.115	0.0963
NCI-H1395	0.596	0.311	0.248	0.248
NCI-H2087	0.22	0.086	0.0942	0.0781
NCI-H838	0.224	0.143	0.0896	0.0812

Cell Line	relative viability (first compound 0.009487 µM)	relative viability (first compound 0.03 µM)	relative viability (first compound 0.09487 µM)	relative viability (first compound 0.3 µM)
NCI-H1793	0.251	0.168	0.131	0.135
LC-2-ad	0.411	0.204	0.114	0.136
HCC-78	0.432	0.374	0.253	0.3
NCI-H2342	0.475	0.575	0.447	0.271
LOU-NH91	0.508	0.307	0.268	0.273
NCI-H1734	0.26	0.135	0.122	0.126
NCI-H520	0.232	0.142	0.134	0.126
UMC-11	0.29	0.173	0.177	0.167
NCI-H1755	0.423	0.316	0.223	0.238
SK-LU-1	0.393	0.229	0.17	0.165
NCI-H647	0.18	0.111	0.0539	0.0401
SW 1573	0.218	0.0747	0.0634	0.0773
HCC-15	0.673	0.292	0.107	0.132
NCI-H2126	0.333	0.3	0.207	0.198
NCI-H2085	0.514	0.503	0.22	0.211
NCI-H522	1.19	0.855	0.316	0.255
BEN	0.458	0.386	0.287	0.296
NCI-H650	0.374	0.171	0.128	0.101
LCLC-103H	0.402	0.441	0.208	0.192
PC-14	0.215	0.0424	0.0361	0.0423
NCI-H2228	0.651	0.115	0.0872	0.0982
COR-L23	0.222	0.0905	0.0689	0.0651
NCI-H1915	0.474	0.121	0.125	0.113
